pIC50: −log10 of the molar value.
Each molecule was assayed against T1, LRRK2 kinase in SH-SY5Y cells over-expressing recombinant full length LRRK2 (Homo sapiens, UniProt Q5S007) (assay: Recombinant cellular LRRK2 AlphaScreen assay (LRRK2 Ser935 phosphorylation)). Settings: 60 min.
T1 construct: A BacMam virus expressing full length recombinant LRRK2 was purchased from Invitrogen; host or cells: SH-SY5Y human neuroblastoma cells transduced with BacMam LRRK2 virus
Assay type: cell-based
Text: b. Recombinant Cellular LRRK2 AlphaScreen Assay
To determine the activity of compounds against LRRK2 kinase in cells, the observed LRRK2 kinase-dependent modulation of LRRK2 Ser 935 phosphorylation (Dzamko et al., 2010, Biochem. J. 430: 405-413) was utilized to develop a quantitative 384 well plate-based immunoassay of LRRK2 Ser935 phosphorylation in the human neuroblastoma cell line SH-SY5Y, engineered to over-express recombinant full length LRRK2 protein.
A BacMam virus expressing full length recombinant LRRK2 was purchased from Invitrogen and amplified by inoculation of SF-9 cells at MOI 0.3 for 4-5 days in Sf-900 III SFM medium supplemented with 3% fetal bovine serum. Infected cell cultures were then centrifuged at 2000 g for 20 minutes, viral supernatant titer determined by anti-gp64 plaque assay and stored at 4° C.
Affinity-purified anti-phospho LRRK2 Ser935 sheep polyclonal antibody (Dzamko et al., 2010, Biochem. J. 430: 405-413) was biotinylated by standard methods (PerkinElmer). Anti-LRRK2 rabbit polyclonal antibody was purchased from Novus Biologicals. AlphaScreen Protein A IgG Kit (including acceptor and donor beads) was purchased from Perkin Elmer.
SH-SY5Y cells were grown in DMEM/F12 medium with 10% dialysed fetal bovine serum and harvested by treatment with 0.5% trypsin-EDTA for 5 minutes at 37° C. followed by centrifugation at 1000 rpm for 4 minutes. The cell pellet was resuspended in Opti-MEM reduced serum media (Invitrogen) at 200,000 cells/ml and mixed with the BacMam LRRK2 virus at M01=50. 50 μl cell solutions were then dispensed to each well of a 384-well plate and incubated at 37° C., 5% CO2 for 24 hours.
Compounds were prepared at 10× final assay concentration as 11 point 1 in 4 serial I dilutions in Opti-MEM reduced serum medium (Invitrogen 31985070) containing 1% DMSO. On the day of assay, 5.5 μl of the compound solutions were transferred from the compound plate to the cell assay plate to achieve a top final assay concentration of 10 uM. DMSO (0.1% final assay concentration) was added to column 6 and 2-(benzyloxy)-5-methyl-4-(1-methyl-1H-pyrazol-4-yl)-N-(pyridin-3-yl)benzamide (2 μM final assay concentration) was added to column 18 to serve as 0% and 100% inhibition controls, respectively.
Cells were incubated at 37° C., 5% CO2 for 60 minutes. The medium was then removed and cells lysed by addition of 20 μl of cell lysis buffer (Cell Signaling Technology) and incubation at 4° C. for 20 minutes. 10 μl of antibody/acceptor bead mix [(1/1000 biotinylated-pS935 LRRK2 antibody, 1/1000 total-LRRK2 antibody, 1/100 Acceptor beads in AlphaScreen detection buffer (25 mM Hepes (pH 7.4), 0.5% Triton X-100, 1 mg/ml Dextran 500 and 0.1% BSA)] was then added to each well and plates incubated for 2 hours at ambient temperature in the dark. 10 μl of donor beads solution (1/33.3 donor beads in AlphaScreen detection buffer) was then added to each well. Following incubation for a further 2 hours at ambient temperature in the dark, plates were read on an EnVision™ plate reader at emission 520-620 nm with excitation 680 nm. Dose response curve data was based on a sigmoidal dose-response model.

T1 sequence (Q5S007 whole entry): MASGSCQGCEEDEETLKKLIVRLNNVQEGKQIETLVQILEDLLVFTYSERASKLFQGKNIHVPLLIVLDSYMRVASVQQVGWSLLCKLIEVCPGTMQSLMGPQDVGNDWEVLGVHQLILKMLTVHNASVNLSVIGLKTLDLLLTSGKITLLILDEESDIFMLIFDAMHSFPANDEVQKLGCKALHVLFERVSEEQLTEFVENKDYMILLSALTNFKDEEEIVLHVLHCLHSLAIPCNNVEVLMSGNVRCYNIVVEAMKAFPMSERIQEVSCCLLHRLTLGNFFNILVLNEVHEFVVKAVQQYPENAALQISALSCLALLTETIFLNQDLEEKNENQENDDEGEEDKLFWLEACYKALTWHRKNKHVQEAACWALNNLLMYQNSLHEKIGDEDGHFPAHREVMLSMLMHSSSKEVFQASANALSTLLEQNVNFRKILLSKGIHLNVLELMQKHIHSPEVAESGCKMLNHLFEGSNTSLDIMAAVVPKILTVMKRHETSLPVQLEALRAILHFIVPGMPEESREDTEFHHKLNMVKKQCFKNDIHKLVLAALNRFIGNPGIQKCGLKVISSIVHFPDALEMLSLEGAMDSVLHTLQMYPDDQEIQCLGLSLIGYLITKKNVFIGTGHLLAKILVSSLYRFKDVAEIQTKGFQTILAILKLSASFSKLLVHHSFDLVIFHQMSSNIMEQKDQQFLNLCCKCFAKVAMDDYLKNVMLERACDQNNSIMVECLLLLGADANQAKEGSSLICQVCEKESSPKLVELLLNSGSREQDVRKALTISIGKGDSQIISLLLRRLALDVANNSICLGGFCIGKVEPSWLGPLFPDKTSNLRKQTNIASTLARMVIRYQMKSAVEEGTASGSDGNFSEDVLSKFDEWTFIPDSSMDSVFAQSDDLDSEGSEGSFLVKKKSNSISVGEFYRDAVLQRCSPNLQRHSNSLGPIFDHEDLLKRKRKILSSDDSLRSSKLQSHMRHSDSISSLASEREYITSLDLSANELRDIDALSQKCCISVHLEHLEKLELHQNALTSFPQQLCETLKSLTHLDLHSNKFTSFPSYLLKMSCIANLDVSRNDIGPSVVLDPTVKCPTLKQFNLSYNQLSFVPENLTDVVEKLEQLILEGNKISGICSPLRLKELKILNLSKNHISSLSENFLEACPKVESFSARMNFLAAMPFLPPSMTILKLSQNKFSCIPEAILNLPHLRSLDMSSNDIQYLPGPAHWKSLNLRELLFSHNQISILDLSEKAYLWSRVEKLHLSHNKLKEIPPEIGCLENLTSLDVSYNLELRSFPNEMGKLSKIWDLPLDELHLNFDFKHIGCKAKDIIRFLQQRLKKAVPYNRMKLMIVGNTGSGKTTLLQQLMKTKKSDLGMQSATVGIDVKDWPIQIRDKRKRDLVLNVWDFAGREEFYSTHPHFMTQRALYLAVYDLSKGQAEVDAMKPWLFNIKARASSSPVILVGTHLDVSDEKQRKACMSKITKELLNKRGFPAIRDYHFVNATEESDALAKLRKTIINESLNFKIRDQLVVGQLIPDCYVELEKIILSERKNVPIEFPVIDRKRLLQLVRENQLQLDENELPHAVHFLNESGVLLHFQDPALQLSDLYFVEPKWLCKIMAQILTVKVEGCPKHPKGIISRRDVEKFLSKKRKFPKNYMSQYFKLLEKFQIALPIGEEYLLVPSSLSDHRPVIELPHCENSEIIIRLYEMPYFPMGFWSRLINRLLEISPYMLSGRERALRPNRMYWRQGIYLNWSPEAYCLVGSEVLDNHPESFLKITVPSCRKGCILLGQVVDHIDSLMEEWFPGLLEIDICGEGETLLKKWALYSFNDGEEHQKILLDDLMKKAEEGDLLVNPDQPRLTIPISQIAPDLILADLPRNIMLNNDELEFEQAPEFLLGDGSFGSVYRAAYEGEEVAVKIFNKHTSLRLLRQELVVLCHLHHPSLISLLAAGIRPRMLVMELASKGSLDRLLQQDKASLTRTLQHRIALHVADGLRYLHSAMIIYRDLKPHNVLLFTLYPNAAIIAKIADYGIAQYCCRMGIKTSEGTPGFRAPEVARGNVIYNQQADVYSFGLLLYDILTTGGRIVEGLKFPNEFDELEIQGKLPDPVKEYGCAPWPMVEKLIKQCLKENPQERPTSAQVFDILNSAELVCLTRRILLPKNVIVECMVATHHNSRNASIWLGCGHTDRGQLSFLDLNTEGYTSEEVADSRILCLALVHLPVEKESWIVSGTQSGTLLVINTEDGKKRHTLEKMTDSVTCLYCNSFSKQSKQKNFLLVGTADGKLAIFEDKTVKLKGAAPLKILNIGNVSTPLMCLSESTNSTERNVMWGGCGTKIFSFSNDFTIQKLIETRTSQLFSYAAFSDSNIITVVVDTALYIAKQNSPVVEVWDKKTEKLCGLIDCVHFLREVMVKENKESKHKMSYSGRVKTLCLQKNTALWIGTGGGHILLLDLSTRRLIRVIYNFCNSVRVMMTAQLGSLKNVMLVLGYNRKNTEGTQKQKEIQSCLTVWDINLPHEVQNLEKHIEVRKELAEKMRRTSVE

Compound | pIC50
COCCN1CCC(n2nc3c(c2C)Nc2ncc(Cl)c(n2)NCCCO3)C(F)C1 (single isomer, unassigned) [E59, trans-14-chloro-5-[3-fluoro-1-(2-methoxyethyl)piperidin-4-yl]-4-methyl-8-oxa-2,5,6,12,16,17-hexaazatricyclo[11.3.1.0^3,7]heptadeca 1(16),3,6,13(17),14-pentaene] | ≥ 7.00
Cc1c2c(nn1C1CCC(O)CC1)OCCC(C)Nc1nc(ncc1Cl)N2 (single isomer, unassigned) [E94, 4-{14-chloro-4,11-dimethyl-8-oxa-2,5,6,12,16,17-hexaazatricyclo [11.3.1.0^3,7]heptadeca-1(16),3,6,13(17),14-pentaen-5-yl}cyclohexan-1-ol] | ≥ 7.00
Cc1c2c(nn1C1CCC(N3CCOCC3)CC1)OCCC(C)Nc1nc(ncc1Cl)N2 (single isomer, unassigned) [E150] | ≥ 7.00
Cc1c2c(nn1C1CCC(N3CCC(F)C3)CC1)OCCCNc1nc(ncc1Cl)N2 (single isomer, unassigned) [E152, 14-Chloro-5-[4-(3-fluoropyrrolidin-1-yl)cyclohexyl]-4-methyl-8-oxa-2,5,6,12,16,17-hexaazatricyclo[11.3.1. 0^3,7]heptadeca-1(16),3,6,13(17),14-pentaene] | ≥ 7.00
Cc1c2c(nn1C1CCC(N3CCC(F)C3)CC1)OCCC(C)Nc1nc(ncc1Cl)N2 (single isomer, unassigned) [E158, 14-Chloro-5-[4-(3-fluoropyrrolidin-1-yl)cyclohexyl]-4,11-dimethyl-8-oxa-2,5,6,12,16,17-hexaazatricyclo [11.3.1.0^3,7]heptadeca-1(16),3,6,13(17),14-pentaene] | ≥ 7.00
Cc1c2c(nn1C(C)(C)C#N)OCC(C)C(C)Nc1nc(ncc1Cl)N2 (single isomer, unassigned) [E165, 2-{14-Chloro-4,10,11-trimethyl-8-oxa-2,5,6, 12,16,17-hexaazatricyclo[11.3.1.0^3,7]heptadeca-1(16),3,6, 13(17),14-pentaen-5-yl}-2-methylpropanenitrile] | ≥ 7.00
COC1CCCC(n2nc3c(c2C)Nc2ncc(Cl)c(n2)NC(C)CCO3)C1 (single isomer, unassigned) [E170, 14-Chloro-5-(3-methoxycyclohexyl)-4,11-dimethyl-8-oxa-2,5,6,12,16,17-hexaazatricyclo[11.3.1.0^3,7] heptadeca-1(16),3,6,13(17),14-pentaene] | ≥ 7.00
COC1CCCC(n2nc3c(c2C)Nc2ncc(Cl)c(n2)NCCCO3)C1 (single isomer, unassigned) [E178, 14-Chloro-5-(3-methoxycyclohexyl)-4-methyl-8-oxa-2,5,6,12,16,17-hexaazatricyclo[11.3.1.0^3,7]heptadeca-1(16),3,6,13(17),14-pentaene] | ≥ 7.00
Cc1c2c(nn1C1CCOC(C)C1)OCCCNc1nc(ncc1Cl)N2 (single isomer, unassigned) [E202, 14-Chloro-4-methyl-5-(2-methyloxan-4-yl)-8-oxa-2,5,6,12,16,17-hexaazatricyclo[11.3.1.0^3,7]heptadeca-1(16),3,6,13(17),14-pentaene] | ≥ 7.00
COC1CNc2nc(ncc2Cl)Nc2c(nn(C3CCOC(C)C3)c2C)OC1 (single isomer, unassigned) [E206, 14-Chloro-10-methoxy-4-methyl-5-(2-methyloxan-4-yl)-8-oxa-2,5,6,12,16,17-hexaazatricyclo [11.3.1.0^3,7] heptadeca-1(16),3,6,13(17),14-pentaene] | ≥ 7.00
COC1CNc2nc(ncc2Cl)Nc2c(nn(C3CCCOC3)c2C)OC1 (single isomer, unassigned) [E229, 14-Chloro-10-methoxy-4-methyl-5-(oxan-3-yl)-8-oxa-2,5,6,12,16,17-hexaazatricyclo[11.3.1.0^3,7]heptadeca-1(17),3,6,13,15-pentaene] | ≥ 7.00

The remaining lines, values ahead:

pIC50 | Compound
≥ 7.00 | Cc1c2c(nn1C1CCOC(C)C1)OCCC(C)Nc1nc(ncc1Cl)N2 (single isomer, unassigned) [E80, 14-chloro-4,11-dimethyl-5-(2-methyloxan-4-yl)-8-oxa-2,5,6,12, 16,17-hexaazatricyclo[11.3.1.0^3,7]heptadeca-1(16),3,6,13(17),14-pentaene]
≥ 7.00 | Cc1c2c(nn1C1COCCC1F)OCCCNc1nc(ncc1Cl)N2 (single isomer, unassigned) [E86, 14-chloro-5-[4-fluorooxan-3-yl]-4-methyl-8-oxa-2,5,6,12,16,17-hexaazatricyclo [11.3.1.0^3,7]heptadeca-1(16),3,6,13(17),14-pentaene]
≥ 7.00 | Cc1c2c(nn1C1CCN(C3COC3)CC1F)OCCC(C)Nc1nc(ncc1Cl)N2 (single isomer, unassigned) [E96, 14-chloro-5-[3-fluoro-1-(oxetan-3-yl)piperidin-4-yl]-4,11-dimethyl-8-oxa-2,5,6,12,16,17-hexaazatricyclo[11.3.1.0^3,7]heptadeca-1(16),3,6,13(17),14-pentaene]
≥ 7.00 | COCCN1CCC(n2nc3c(c2C)Nc2ncc(Cl)c(n2)N[C@H](C)CCO3)C(F)C1 (single isomer, unassigned) [E100]
≥ 7.00 | Cc1c2c(nn1C1CCCOC1)OCCCNc1nc(ncc1C(F)(F)F)N2 (single isomer, unassigned) [E132, 4-methyl-5-(oxan-3-yl)-14-(trifluoromethyl)-8-oxa-2,5,6,12,16,17-hexaazatricyclo[11.3.1.0^3,7]heptadeca-1(16),3,6,13(17),14-pentaene]
≥ 7.00 | COCC1CCOc2nn(C3CCOCC3)c(C)c2Nc2ncc(Br)c(n2)N1 (single isomer, unassigned) [E168, 14-Bromo-11-(methoxymethyl)-4-methyl-5-(oxan-4-yl)-8-oxa-2,5,6,12,16,17-hexaazatricyclo[11.3.1.0^3,7] heptadeca-1(16),3,6,13(17),14-pentaene]
≥ 7.00 | Cc1c2c(nn1C1CC(C)OC(C)C1)OCCC(C)Nc1nc(ncc1Cl)N2 (single isomer, unassigned) [E194, 14-Chloro-5-(2,6-dimethyloxan-4-yl)-4,11-dimethyl-8-oxa-2,5,6,12,16,17-hexaazatricyclo[11.3.1.0^3,7] heptadeca-1(16),3,6,13(17),14-pentaene]
≥ 7.00 | Cc1c2c(nn1C1CC(C)OC(C)C1)OCCCNc1nc(ncc1Cl)N2 (single isomer, unassigned) [E200, 14-Chloro-5-(2,6-dimethyloxan-4-yl)-4-methyl-8-oxa-2,5,6,12,16,17-hexaazatricyclo[11.3.1.0^3,7]heptadeca-1(16),3,6,13(17),14-pentaene]
≥ 7.00 | COC1CNc2nc(ncc2Cl)Nc2c(nn(CCN3CCOCC3)c2C)OC1 (single isomer, unassigned) [E223, 14-Chloro-10-methoxy-4-methyl-5-[2-(morpholin-4-yl)ethyl]-8-oxa-2,5,6,12,16,17-hexaazatricyclo [11.3.1.0^3,7]heptadeca-1(16),3,6,13(17),14-pentaene]
≥ 7.00 | COC1CNc2nc(ncc2C(F)(F)F)Nc2c(nn(C3CCCOC3)c2C)OC1 (single isomer, unassigned) [E227, 10-Methoxy-4-methyl-5-(oxan-3-yl)-14-(trifluoromethyl)-8-oxa-2,5,6,12,16,17-hexaazatricyclo [11.3.1.0^3,7] heptadeca-1(17),3,6,13,15-pentaene]

Reference: patent publication US20200392158A1, “INHIBITORS OF LEUCINE RICH REPEAT KINASE 2” (GLAXOSMITHKLINE INTELLECTUAL PROPERTY DEVELOPMENT LIMITED, priority 2017, published 2020)
